This is an account of results in US8080644B2, “Oligonucleotide analogues” (Exiqon A/S, priority 1997, dated 2011).

Series [1] has as its system 5′-(AAAAAAAAAAAAAA)-3′. Put plainly: Tm of duplex (spectrophotometric melting curves). The format is binding. Particulars: vs RNA 5′-(AAAAAAAAAAAAAA)-3′; 10 mM Na2HPO4 pH 7.0, 100 mM NaCl, 0.1 mM EDTA. How it is done:
(§1) Thermostability of oligonucleotides containing monomers of formula V, X, Y and Z^T, Z^U, Z^G, Z^C, Z^A, Z^MeC. The thermostability of the LNA modified oligonucleotides were determined spectrophotometrically using a spectrophotometer equipped with a thermoregulated Peltier element. Hybridisation mixtures of 1 ml were prepared containing either of 3 different buffers (10 mM Na2HPO4, pH 7.0, 100 mM NaCl, 0.1 mM EDTA; 10 mM Na2HPO4 pH 7.0, 0.1 mM EDTA; 3M tetramethylammoniumchlorid (TMAC), 10 mM Na2HPO4, pH 7.0, 0.1 mM EDTA) and equimolar (1 μM or 1.5 μM) amounts of the different LNA modified oligonucleotides and their complementary or mismatched DNA or RNA oligonucleotides. Identical hybridisation mixtures using the unmodified oligonucleotides were prepared as references. The Tm's were obtained as the first derivative of the melting curves. FIG. 2 illustrates the monomeric LNAs used. The nomenclature V, X, Y and Z^T, Z^U, Z^G, Z^C, Z^A, Z^MeC refer to structures V, X, Y and Z of FIG. 2. In the tables, the nucleobases of the LNA monomers are indicated. Furthermore, for the thio and amino variants of the LNA structure Z of the last two tables, the nomenclature used is, e.g., Z^TS and Z^TNH, respectively.

Series [2] relates to 5′-d(AAAAAAAAAAAAAA)-3′. Put plainly: Tm of duplex (spectrophotometric melting curves). Type of series: binding. Particulars: vs 5′-d(AAAAAAAAAAAAAA)-3′; 10 mM Na2HPO4 pH 7.0, 100 mM NaCl, 0.1 mM EDTA. The protocol: as §1

Strand notation (5' to 3'): a small letter for the sugar, then the base; units joined by * are phosphorothioate-linked, units joined directly phosphodiester-linked; [ ] holds rarer units or linkages, { } end groups; capitals alone tell only the bases. V = LNA monomer of structure V, bold; X = bicyclic LNA-type nucleotide of structure X in the publication's (LNA marked in bold); Y = bicyclic LNA-type thymidine monomer of structure Y; l = locked nucleic acid (LNA); d = 2'-deoxy (DNA)

For the substance “5′-d(TTTTTTTTTTTTTT)-3′ (SEQ ID NO: 80): unmodified poly-T oligonucleotide (Table 1, 42 and 43) (unmodified DNA) [reference compound]”, the “Tm (° C.) Na2HPO4/NaCl/EDTA” value amounted to 32 °C in series [1] and 36 °C in series [2].

Turning to “5′-d(TTTTTTTTTTTTTT)-3′ (SEQ ID NO: 83): partly modified poly-T oligonucleotide with Z^T (44, 45) (DNA dTdTdTdTdTdTlTdTdTdTdTdTdTdT)”, the “Tm (° C.) Na2HPO4/NaCl/EDTA” value in series [1] was determined as 32 °C; in series [2], 36 °C.

For “5′-d(TTTTTTTTTTTTTT)-3′ (SEQ ID NO: 86): partly modified poly-T oligonucleotide with Z^T (46, 47) (DNA dTdTdTdTdTdTlTlTdTdTdTdTdTdT)”, the “Tm (° C.) Na2HPO4/NaCl/EDTA” value in series [1] came out at 40 °C; in series [2] it was 34 °C.

With “5′-d(TTTTTTTTTTTTTT)-3′ (SEQ ID NO: 89): partly modified poly-T oligonucleotide with Z^T (48, 49) (DNA dTdTdTdTdTlTlTlTlTdTdTdTdTdT)”, the “Tm (° C.) Na2HPO4/NaCl/EDTA” value came to 52 °C in series [1] and 42 °C in series [2].

In the case of “5′-d(TTTTTTTTTTTTTT)-3′ (SEQ ID NO: 92): partly modified poly-T oligonucleotide with Z^T (50, 51) (DNA dTdTdTdTlTdTlTdTlTdTlTdTdTdT)”, the “Tm (° C.) Na2HPO4/NaCl/EDTA” value in series [1] worked out at 53 °C; in series [2], 47 °C.

On to “5′-d(TTTTTTTTTTTTTT)-3′ (SEQ ID NO: 98): partly modified poly-T with monomer V (sugars from the 5' end d7 V1 d6, backbone not given here)”, for which the figures for the “Tm (° C.) Na2HPO4/NaCl/EDTA” value in series [1] and in series [2] were 27 °C and 32 °C, respectively.

Consider “5′-d(TTTTTTTTTTTTTT)-3′ (SEQ ID NO: 101): partly modified poly-T with monomer V (sugars from the 5' end d6 V2 d6, backbone not given here)”, for which the “Tm (° C.) Na2HPO4/NaCl/EDTA” value was 28 °C in series [1] and 31 °C in series [2].

Regarding “5′-d(TTTTTTTTTTTTTT)-3′ (SEQ ID NO: 104): partly modified poly-T with monomer V (sugars from the 5' end d6 V1 d1 V1 d5, backbone not given here)”, the “Tm (° C.) Na2HPO4/NaCl/EDTA” value is 23 °C in series [1] and 30 °C in series [2].

Regarding “5′-d(TTTTTTTTTTTTTT)-3′ (SEQ ID NO: 107): partly modified poly-T with monomer V (sugars from the 5' end d5 V4 d5, backbone not given here)”, the figures for the “Tm (° C.) Na2HPO4/NaCl/EDTA” value in series [1] and in series [2] were 31 °C and 23 °C, respectively.

On to “5′-d(TTTTTTTTTTTTTT)-3′ (SEQ ID NO: 110): partly modified poly-T with monomer V (sugars from the 5' end ddddVdVdVdVddd, backbone not given here)”, for which the figures for the “Tm (° C.) Na2HPO4/NaCl/EDTA” value in series [1] and in series [2] were 16 °C and 23 °C, respectively.

On to “5′-d(TTTTTTTTTTTTTT)-3′ (SEQ ID NO: 117): poly-T containing X^T (sugars from the 5' end d7 X1 d6, backbone not given here)”, for which the “Tm (° C.) Na2HPO4/NaCl/EDTA” value in series [1] and in series [2] was 23 °C each time.

For “5′-d(TTTTTTTTTTTTTT)-3′ (SEQ ID NO: 120): poly-T containing X^T (sugars from the 5' end d6 X2 d6, backbone not given here)”, the “Tm (° C.) Na2HPO4/NaCl/EDTA” value is 23 °C in series [1] and 19 °C in series [2].

On to “5′-d(TTTTTTTTTTTTTT)-3′ (SEQ ID NO: 123): poly-T containing X^T (sugars from the 5' end d6 X1 d1 X1 d5, backbone not given here)”, for which the “Tm (° C.) Na2HPO4/NaCl/EDTA” value in series [1] was 15 °C; in series [2], 9 °C.

For the substance “5′-d(TTTTTTTTTTTTTT)-3′ (SEQ ID NO: 126): poly-T containing X^T (sugars from the 5' end d5 X4 d5, backbone not given here)”, the “Tm (° C.) Na2HPO4/NaCl/EDTA” value in series [1] is 14 °C; in series [2] it was 5 °C.

“5′-d(TTTTTTTTTTTTTT)-3′ (SEQ ID NO: 129): partly modified poly-T with monomer Y (sugars from the 5' end d7 Y1 d6, backbone not given here)”: the “Tm (° C.) Na2HPO4/NaCl/EDTA” value came to 37 °C in series [1] and 36 °C in series [2].

Regarding “5′-d(TTTTTTTTTTTTTT)-3′ (SEQ ID NO: 132): partly modified poly-T with monomer Y (sugars from the 5' end d6 Y2 d6, backbone not given here)”, the “Tm (° C.) Na2HPO4/NaCl/EDTA” value was determined as 37 °C in series [1] and 35 °C in series [2].

“5′-d(TTTTTTTTTTTTTT)-3′ (SEQ ID NO: 135): partly modified poly-T with monomer Y (sugars from the 5' end d6 Y1 d1 Y1 d5, backbone not given here)”: the “Tm (° C.) Na2HPO4/NaCl/EDTA” value in series [1] came out at 36 °C; in series [2] it was 35 °C.

As for “5′-d(TTTTTTTTTTTTTT)-3′ (SEQ ID NO: 138): partly modified poly-T with monomer Y (sugars from the 5' end d5 Y4 d5, backbone not given here)”, the “Tm (° C.) Na2HPO4/NaCl/EDTA” value in series [1] was 33 °C; in series [2] it was 32 °C.

Take “5′-d(TTTTTTTTTTTTTT)-3′ (SEQ ID NO: 141): partly modified poly-T with monomer Y (sugars from the 5' end ddddYdYdYdYddd, backbone not given here)”: the “Tm (° C.) Na2HPO4/NaCl/EDTA” value in series [1] and in series [2] was 36 °C each time.

As for “5′-d(TTTTTTTTTTTTTT)-3′ (SEQ ID NO: 144): fully modified poly-T oligonucleotide of structure Y (sugars from the 5' end Y13 d1, backbone not given here)”, the “Tm (° C.) Na2HPO4/NaCl/EDTA” value in series [1] and in series [2] was 58 °C throughout.
